# Data taken from patent US12171230B2, “Herbicidal compositions” (Bayer Aktiengesellschaft, priority 2018, dated 2024).
# Columns and labels:
# Format in all cases: in vivo
# Veronica hederifolia = assay: Post-emergence herbicidal action against Veronica hederifolia
# Description: (§1) The following abbreviations are used in the description and the tables that follow: • g of a.i./ha=grams of active substance (active ingredient) (=100% active compound) per hectare; • The sum total of the effects of the individual applications is reported under E^A; • expected values according to Colby are each reported under E^C.
# (§2) The rating period is reported in days after application (DAT).
# Lolium rigidum = assay: Post-emergence herbicidal action against Lolium rigidum
# Description: as §1, §2
# Bromus sterilis = assay: Post-emergence herbicidal action against Bromus sterilis
# Description: as §1, §2
# Phalaris minor = assay: Post-emergence herbicidal action against Phalaris minor
# Description: as §1, §2
# Matricaria inodora = assay: Post-emergence herbicidal action against Matricaria inodora; details: for Herbicidal action in [%] 14 DAT against Matricaria inodora: post-emergence
# Poa annua = assay: Post-emergence herbicidal action against Poa annua; details: for Herbicidal action in [%] 14 DAT against Poa annua L. / Herbicidal action in [%] 28 DAT against Poa annua L.: post-emergence
# Method: (§3) When the observed efficacies exceed the formal sum total of the values of the tests with individual applications, they also exceed the expected value according to Colby, which is calculated using the formula below and is likewise regarded as an indication of synergism (cf. S. R. Colby; in Weeds 15 (1967) p. 20 to 22): E^C=A+B−([…])
# (§4) Here: • A=efficacy of the active compound (A) in % at an application rate of a g a.i./ha; • B=efficacy of the active compound (B) in % at an application rate of b g a.i./ha; • E^C=expected value of the effect of the combination (A)+(B) in % at the combined application rate a+b g a.i./ha.
# (§5) Seeds or rhizome pieces of mono- and dicotyledonous weeds are placed in sandy loam in pots, covered with soil and grown in a greenhouse under good growth conditions (temperature, air humidity, water supply). Three weeks after sowing, the test plants were treated at the three-leaf stage with the compositions according to the invention. The compositions according to the invention formulated as spray powders or as emulsion concentrates were sprayed onto the green plant parts in various dosages with an application rate of 300 to 800 l/ha of water (equivalent). After the test plants have been left to stand in the greenhouse under optimal growth conditions for about 3 to 4 weeks, the action of the preparations is scored visually in comparison to untreated controls. The compositions according to the invention also have good post-emergence herbicidal activity against a broad spectrum of economically important gramineous and broadleaf weeds.
# [1] = tested on: Lolium rigidum (resistant biotype); assay: Post-emergence herbicidal action against Lolium rigidum (resistant biotype)
# Description: as §1, §2
# Alopecurus myosuroides = assay: Post-emergence herbicidal action against Alopecurus myosuroides
# Description: as §1, §2
# Viola tricolor = assay: Post-emergence herbicidal action against Viola tricolor
# Description: as §1, §2
# Galium aparine = assay: Post-emergence herbicidal action against Galium aparine
# Method: as §3, §4, §5
structure (smiles),measurement,setting,value
COc1c(Cl)ccc(-c2cc(N)c(Cl)c(C(=O)O)n2)c1F [(B5.31) Halauxifen],Herbicidal action in [%] 14 DAT against Veronica hederifolia,Veronica hederifolia; 3 g of a.i./ha,60%
same,Herbicidal action in [%] 14 DAT against Veronica hederifolia,Veronica hederifolia; 9 g of a.i./ha,60%
same,Herbicidal action in [%] 14 DAT against Lolium rigidum,Lolium rigidum; 1 g of a.i./ha,0%
same,Herbicidal action in [%] 14 DAT against Lolium rigidum,Lolium rigidum; 3 g of a.i./ha,0%
same,Herbicidal action in [%] 14 DAT against Lolium rigidum,Lolium rigidum; 9 g of a.i./ha,5%
same,Herbicidal action in [%] 28 DAT against Lolium rigidum,Lolium rigidum; 1 g of a.i./ha,0%
same,Herbicidal action in [%] 28 DAT against Lolium rigidum,Lolium rigidum; 3 g of a.i./ha,0%
same,Herbicidal action in [%] 28 DAT against Lolium rigidum,Lolium rigidum; 9 g of a.i./ha,0%
same,Herbicidal action in [%] 14 DAT against Bromus sterilis,Bromus sterilis; 1 g of a.i./ha,0%
same,Herbicidal action in [%] 14 DAT against Bromus sterilis,Bromus sterilis; 3 g of a.i./ha,10%
same,Herbicidal action in [%] 14 DAT against Bromus sterilis,Bromus sterilis; 9 g of a.i./ha,30%
same,Herbicidal action in [%] 28 DAT against Bromus sterilis,Bromus sterilis; 1 g of a.i./ha,0%
same,Herbicidal action in [%] 28 DAT against Bromus sterilis,Bromus sterilis; 3 g of a.i./ha,0%
same,Herbicidal action in [%] 28 DAT against Bromus sterilis,Bromus sterilis; 9 g of a.i./ha,20%
same,Herbicidal action in [%] 14 DAT against Phalaris minor,Phalaris minor; 1 g of a.i./ha,0%
same,Herbicidal action in [%] 14 DAT against Phalaris minor,Phalaris minor; 3 g of a.i./ha,0%
same,Herbicidal action in [%] 14 DAT against Phalaris minor,Phalaris minor; 9 g of a.i./ha,5%
same,Herbicidal action in [%] 28 DAT against Phalaris minor,Phalaris minor; 1 g of a.i./ha,0%
same,Herbicidal action in [%] 28 DAT against Phalaris minor,Phalaris minor; 3 g of a.i./ha,0%
same,Herbicidal action in [%] 28 DAT against Phalaris minor,Phalaris minor; 9 g of a.i./ha,5%
same,Herbicidal action in [%] 14 DAT against Matricaria inodora,Matricaria inodora; 1 g of a.i./ha,30%
same,Herbicidal action in [%] 14 DAT against Matricaria inodora,Matricaria inodora; 3 g of a.i./ha,40%
same,Herbicidal action in [%] 14 DAT against Matricaria inodora,Matricaria inodora; 9 g of a.i./ha,60%
same,Herbicidal action in [%] 14 DAT against Poa annua L.,Poa annua; 1 g of a.i./ha,0%
same,Herbicidal action in [%] 14 DAT against Poa annua L.,Poa annua; 3 g of a.i./ha,0%
same,Herbicidal action in [%] 14 DAT against Poa annua L.,Poa annua; 9 g of a.i./ha,5%
same,Herbicidal action in [%] 28 DAT against Poa annua L.,Poa annua; 1 g of a.i./ha,0%
same,Herbicidal action in [%] 28 DAT against Poa annua L.,Poa annua; 3 g of a.i./ha,0%
same,Herbicidal action in [%] 28 DAT against Poa annua L.,Poa annua; 9 g of a.i./ha,0%
same,Herbicidal action in [%] 14 DAT against Lolium rigidum (resistant biotype),[1]; 1 g of a.i./ha,0%
same,Herbicidal action in [%] 14 DAT against Lolium rigidum (resistant biotype),[1]; 3 g of a.i./ha,0%
same,Herbicidal action in [%] 14 DAT against Lolium rigidum (resistant biotype),[1]; 9 g of a.i./ha,5%
same,Herbicidal action in [%] 28 DAT against Lolium rigidum (resistant biotype),[1]; 1 g of a.i./ha,0%
same,Herbicidal action in [%] 28 DAT against Lolium rigidum (resistant biotype),[1]; 3 g of a.i./ha,0%
same,Herbicidal action in [%] 28 DAT against Lolium rigidum (resistant biotype),[1]; 9 g of a.i./ha,10%
same,Herbicidal action in [%] 14 DAT against Alopecurus myosuroides,Alopecurus myosuroides; 1 g of a.i./ha,0%
same,Herbicidal action in [%] 14 DAT against Alopecurus myosuroides,Alopecurus myosuroides; 3 g of a.i./ha,0%
same,Herbicidal action in [%] 14 DAT against Alopecurus myosuroides,Alopecurus myosuroides; 9 g of a.i./ha,5%
same,Herbicidal action in [%] 28 DAT against Alopecurus myosuroides,Alopecurus myosuroides; 1 g of a.i./ha,0%
same,Herbicidal action in [%] 28 DAT against Alopecurus myosuroides,Alopecurus myosuroides; 3 g of a.i./ha,0%
same,Herbicidal action in [%] 28 DAT against Alopecurus myosuroides,Alopecurus myosuroides; 9 g of a.i./ha,0%
COc1cc(OC)nc(NC(=O)NS(=O)(=O)c2cc(NC=O)ccc2C(=O)N(C)C)n1 [(B2.31) Foramsulfuron],Herbicidal action 14 DAT against Veronica hederifolia,Veronica hederifolia; 1 g of a.i./ha,80%
same,Herbicidal action 28 DAT against Lolium rigidum,Lolium rigidum; 3 g of a.i./ha,35%
same,Herbicidal action 28 DAT against Lolium rigidum,Lolium rigidum; 9 g of a.i./ha,65%
same,Herbicidal action 14 DAT against Bromus sterilis,Bromus sterilis; 1 g of a.i./ha,65%
same,Herbicidal action 14 DAT against Bromus sterilis,Bromus sterilis; 3 g of a.i./ha,85%
same,Herbicidal action 28 DAT against Bromus sterilis,Bromus sterilis; 3 g of a.i./ha,25%
same,Herbicidal action 14 DAT against Bromus sterilis,Bromus sterilis; 9 g of a.i./ha,85%
same,Herbicidal action 28 DAT against Bromus sterilis,Bromus sterilis; 9 g of a.i./ha,60%
same,Herbicidal action 14 DAT against Phalaris minor,Phalaris minor; 3 g of a.i./ha,85%
same,Herbicidal action 28 DAT against Phalaris minor,Phalaris minor; 3 g of a.i./ha,40%
same,Herbicidal action 14 DAT against Phalaris minor,Phalaris minor; 9 g of a.i./ha,80%
same,Herbicidal action 28 DAT against Phalaris minor,Phalaris minor; 9 g of a.i./ha,20%
same,Herbicidal action 28 DAT against Viola tricolor,Viola tricolor; 1 g of a.i./ha,65%
same,Herbicidal action 28 DAT against Viola tricolor,Viola tricolor; 3 g of a.i./ha,80%
same,Herbicidal action 14 DAT against Matricaria inodora,Matricaria inodora; 1 g of a.i./ha,70%
same,Herbicidal action 28 DAT against Matricaria inodora,Matricaria inodora; 1 g of a.i./ha,30%
same,Herbicidal action 28 DAT against Galium aparine,Galium aparine; 1 g of a.i./ha,0%
same,Herbicidal action 28 DAT against Galium aparine,Galium aparine; 9 g of a.i./ha,65%
same,Herbicidal action 28 DAT against Poa annua L.,Poa annua; 1 g of a.i./ha,40%
same,Herbicidal action 14 DAT against Lolium rigidum (resistant biotype),[1]; 3 g of a.i./ha,15%
same,Herbicidal action 28 DAT against Lolium rigidum (resistant biotype),[1]; 3 g of a.i./ha,10%
same,Herbicidal action 14 DAT against Lolium rigidum (resistant biotype),[1]; 9 g of a.i./ha,15%
same,Herbicidal action 28 DAT against Lolium rigidum (resistant biotype),[1]; 9 g of a.i./ha,20%
same,Herbicidal action 14 DAT against Alopecurus myosuroides,Alopecurus myosuroides; 1 g of a.i./ha,80%
same,Herbicidal action 28 DAT against Alopecurus myosuroides,Alopecurus myosuroides; 1 g of a.i./ha,40%
same,Herbicidal action 28 DAT against Alopecurus myosuroides,Alopecurus myosuroides; 3 g of a.i./ha,80%
same,Herbicidal action 28 DAT against Alopecurus myosuroides,Alopecurus myosuroides; 9 g of a.i./ha,85%
